Source: article PMC10303384, “The Effect of Terbinafine and Its Ionic Salts on Certain Fungal Plant Pathogens” (Molecules, 2023)
Converted amounts (≈) assume the structure as drawn. “And” between values parts separate entries of the source, which are not always exact repeats. Equal entries are not always repeated. Where two headings read alike, the source gives them in different places.

Legend:
Valsa malicola (V. mali) = assay: In vitro fungicidal activity, mycelial (hyphae) growth inhibition on PDA; type: cell-based
[1] = test system: Botrytis cinerea (B. cinerea); assay: as above; type: cell-based
[2] = test system: Pyricularia oryzae (P. oryzae); assay: microbe, parasite or virus in culture; type: cell-based; settings: for EC50: P. oryzae
[3] = test system: Phomopsis capsici (P. capsica); assay: In vitro fungicidal activity, mycelial (hyphae) growth inhibition on PDA; type: cell-based
[4] = test system: Alternaria solani (A. solani); assay: as above; type: cell-based
[5] = test system: Rhizoctonia solani (R. solani); assay: microbe, parasite or virus in culture; type: cell-based
[6] = test system: Fusarium graminearum (F. graminearum); assay: microbe, parasite or virus in culture; type: cell-based; settings: for Inhibition Rate at 50 mg/L (%) F. g: mean ± SD of three replicates
[7] = test system: Pythium aphanidermatum (P. aphanidermatum); assay: In vitro fungicidal activity, mycelial (hyphae) growth inhibition on PDA; type: cell-based
[8] = Solubility classification in representative solvents (Vogel protocol); type: physicochemical; settings: thermodynamic from solid, 25 °C
Procedure: This investigation details how to determine the solubility of terbinafine and its salts, guided by the experimental protocol in Vogel’s Textbook of Practical Organic Chemistry. Based on the Snyder polarity index values of the representative solvents, each solvent was tested for its ability to dissolve the target analytes. The solubility data was classified into three categories based on the observed extent of dissolution. […] The experimental procedures were performed at 25 °C and under ambient pressure.

[9] = Solubility of saturated solutions by HPLC at 25 °C; type: physicochemical
Description: The filtrate was then passed through a 0.22 μm nylon membrane filter and subjected to HPLC analysis. Based on Wang’s report about the chromatographic parameters, modifications to the mobile phase ratio were made. The replicability of the results was ensured by performing each measurement in triplicate.

[10] = test system: B. cinerea on cherry tomatoes; assay: In vivo antifungal bioassay on cherry tomatoes; set-up: species or system Botrytis cinerea; settings: 20 mg/L; for Diameter of infection (cm) 4 days: 4 days after treatment; for Diameter of infection (cm) 7 days: 7 days after treatment
[11] = Surface tension of saturated aqueous solutions, Du Noüy ring method; settings: 25 °C
Procedure: This method involved adjusting the stage positioning of the solvent container such that a platinum ring could be immersed below the liquid interface or pulled through the meniscus. […] The maximum force was recorded as the surface tension of the solvent. To ensure accuracy, the platinum ring was thoroughly cleaned between each measurement through rinsing with double-distilled water and wiping it dry. The surface tension determination was performed in quadruplicate.

[12] = Critical micelle concentration by electrical conductivity; settings: 25 °C
Procedure: The critical micelle concentrations (CMCs) of the TISs were measured using electrical conductivity at 25 °C, as shown in Figure S16.
The critical micelle concentrations (CMCs) of all the TISs were determined using an electrical conductivity meter (Leica Desktop Conductivity Meter DDSJ-308F, Shanghai Oustor Industrial Co., Ltd. Shanghai, China).

[13] = Fusarium graminearum, F. graminearum
[14] = read-out: EC50 (μmol/L), F. graminearum
[15] = DMSO, organic solvent or mixture, test amount 0.1 g, Snyder polarity index 6.5, read-out: Solubility in DMSO
[16] = acetone, organic solvent or mixture, test amount 0.1 g, Snyder polarity index 5.1, read-out: Solubility in Acetone
[17] = acetonitrile, organic solvent or mixture, test amount 0.1 g, Snyder polarity index 6.2, read-out: Solubility in Acetonitrile
[18] = chloroform, organic solvent or mixture, test amount 0.1 g, Snyder polarity index 4.1, read-out: Solubility in Chloroform
[19] = ethyl acetate, organic solvent or mixture, test amount 0.1 g, Snyder polarity index 4.3, read-out: Solubility in Ethyl acetate
[20] = isopropanol, organic solvent or mixture, test amount 0.1 g, read-out: Solubility in Isopropanol
[21] = methanol, organic solvent or mixture, test amount 0.1 g, Snyder polarity index 6.6, read-out: Solubility in Methanol
[22] = n-hexane, organic solvent or mixture, test amount 0.1 g, Snyder polarity index 0.0, read-out: Solubility in n-Hexane
[23] = toluene, organic solvent or mixture, test amount 0.1 g, Snyder polarity index 2.3, read-out: Solubility in Toluene
[24] = water, test amount 0.1 g, Snyder polarity index 9.0, read-out: Solubility in Water
[25] = acetone, organic solvent or mixture, thermodynamic from solid, Table S1, read-out: Solubility, Acetone
[26] = acetonitrile, organic solvent or mixture, thermodynamic from solid, Table S1, read-out: Solubility, Acetonitrile
[27] = ethyl acetate, organic solvent or mixture, thermodynamic from solid, Table S1, read-out: Solubility, Ethyl acetate
[28] = isopropanol, organic solvent or mixture, thermodynamic from solid, Table S1, read-out: Solubility, Isopropanol
[29] = n-hexane, organic solvent or mixture, thermodynamic from solid, Table S1, read-out: Solubility, n-Hexane
[30] = toluene, organic solvent or mixture, thermodynamic from solid, Table S1, read-out: Solubility, Toluene
[31] = water, thermodynamic from solid, Table S1, read-out: Solubility, Water

CN(C/C=C/C#CC(C)(C)C)Cc1cccc2ccccc12.O=C(O)/C=C\C(=O)O [TIS 3, (E)-N,6,6-trimethyl-N-(naphthalen-1-ylmethyl)hept-2-en-4-yn-1-aminium (Z)-3-carboxyacrylate]
EC50 (Valsa malicola (V. mali)): 2.03 mg/L
Inhibition Rate at 50 mg/L (%) V. m (Valsa malicola (V. mali); 50 mg/L): 100 ± 0%
EC50 (Valsa malicola (V. mali); read-out: EC50 (μmol/L)): 4.98 µmol/L
Inhibition Rate at 50 mg/L (%) B. c ([1]; 50 mg/L): 100 ± 0%
EC50 ([1]; Botrytis cinerea): 0.13 mg/L
Inhibition Rate at 50 mg/L (%) P. o ([2]; mean ± SD of three replicates): 99.29 ± 0%
EC50 ([2]; Pyricularia oryzae): 0.58 µg/mL
EC50 ([2]; read-out: EC50 (μmol/L)): 1.41 µmol/L
Inhibition Rate at 50 mg/L (%) P. c [3]: 33.16 ± 2.52%
Inhibition Rate at 50 mg/L (%) A. s ([4]; 50 mg/L): 100 ± 0%
EC50 ([4]; Alternaria solani): 0.15 mg/L
EC50 ([4]; read-out: EC50 (μmol/L)): 0.36 µmol/L
better activity than terbinafine [5]: 24%
Inhibition Rate at 50 mg/L (%) R. s ([5]; 50 mg/L): 83.4 ± 0.35%
EC50 ([5]; Rhizoctonia solani): 1.84 µg/mL
EC50 ([5]; read-out: EC50 (μmol/L)): 4.51 µmol/L
Inhibition Rate at 50 mg/L (%) F. g [6]: 100 ± 0%
EC50 [6, 13]: 0.1 µg/mL
EC50 [6, 14]: 0.24 µmol/L
Inhibition Rate at 50 mg/L (%) P. a [7]: 69.54 ± 0%
solubility [8, 15]: > 100 mg/mL
solubility [8, 16]: < 33.3 mg/mL
solubility [8, 17]: < 33.3 mg/mL
solubility [8, 18]: > 100 mg/mL
solubility [8, 19]: < 33.3 mg/mL
solubility [8, 20]: < 33.3 mg/mL
solubility [8, 21]: > 100 mg/mL
solubility [8, 22]: < 33.3 mg/mL
solubility [8, 23]: < 33.3 mg/mL
solubility [8, 24]: < 33.3 mg/mL
solubility at 15 min [9, 25]: 3.76 µM
solubility at 15 min [9, 26]: 1490 µM
solubility at 15 min [9, 27]: 485 µM
solubility at 15 min [9, 28]: 3.06 µM
solubility at 15 min [9, 29]: 0.234 µM
solubility at 15 min [9, 30]: 42.1 µM
solubility at 15 min [9, 31]: 616 µM
Diameter of infection (cm) 4 days [10]: 0.82 cm
Diameter of infection (cm) 7 days [10]: 1.02 cm
surface tension of the saturated aqueous solution [11]: 61.48 mN·m^−1

CN(C/C=C/C#CC(C)(C)C)Cc1cccc2ccccc12.O=C(O)/C=C/C(=O)O [TIS 4, (E)-N,6,6-trimethyl-N-(naphthalen-1-ylmethyl)hept-2-en-4-yn-1-aminium (E)-3-carboxyacrylate]
EC50 (Valsa malicola (V. mali)): 1.88 mg/L
Inhibition Rate at 50 mg/L (%) V. m (Valsa malicola (V. mali); 50 mg/L): 100 ± 0%
EC50 (Valsa malicola (V. mali); read-out: EC50 (μmol/L)): 4.6 µmol/L
Inhibition Rate at 50 mg/L (%) B. c ([1]; 50 mg/L): 100 ± 0%
EC50 ([1]; Botrytis cinerea): 0.15 mg/L
EC50 ([1]; read-out: EC50 (μmol/L)): 0.36 µmol/L
Inhibition Rate at 50 mg/L (%) P. o ([2]; mean ± SD of three replicates): 98.7 ± 0.54%
EC50 ([2]; Pyricularia oryzae): 0.75 µg/mL
EC50 ([2]; read-out: EC50 (μmol/L)): 1.84 µmol/L
Inhibition Rate at 50 mg/L (%) P. c [3]: 47.64 ± 1.58%
Inhibition Rate at 50 mg/L (%) A. s ([4]; 50 mg/L): 100 ± 0%
EC50 ([4]; Alternaria solani): 0.11 mg/L
EC50 ([4]; read-out: EC50 (μmol/L)): 0.28 µmol/L
Inhibition Rate at 50 mg/L (%) R. s ([5]; 50 mg/L): 85.82 ± 1.51%
EC50 ([5]; Rhizoctonia solani): 2.3 µg/mL
EC50 ([5]; read-out: EC50 (μmol/L)): 5.65 µmol/L
Inhibition Rate at 50 mg/L (%) F. g [6]: 100 ± 0%
higher bioactivity compared to terbinafine ([6]; F. graminearum, from EC50): 16%
EC50 [6, 13]: 0.09 µg/mL
EC50 [6, 14]: 0.21 µmol/L
Inhibition Rate at 50 mg/L (%) P. a [7]: 65.23 ± 0.47%
solubility [8, 15]: > 100 mg/mL
solubility [8, 16]: < 33.3 mg/mL
solubility [8, 17]: < 33.3 mg/mL
solubility [8, 18]: < 33.3 mg/mL
solubility [8, 19]: < 33.3 mg/mL
solubility [8, 20]: < 33.3 mg/mL
solubility [8, 21]: < 33.3 mg/mL
solubility [8, 22]: < 33.3 mg/mL
solubility [8, 23]: < 33.3 mg/mL
solubility [8, 24]: < 33.3 mg/mL
solubility at 15 min [9, 25]: 2070 µM
solubility at 15 min [9, 26]: 301 µM
solubility at 15 min ([9]; chloroform, organic solvent or mixture, thermodynamic from solid, Table S1, read-out: Solubility, Chloroform): 321 µM
solubility at 15 min [9, 27]: 880 µM
solubility at 15 min [9, 28]: 1920 µM
solubility at 15 min ([9]; methanol, organic solvent or mixture, thermodynamic from solid, Table S1, read-out: Solubility, Methanol): 7750 µM
solubility at 15 min [9, 29]: 70.9 µM
solubility at 15 min [9, 30]: 0.261 µM
solubility at 15 min ([9]; water, read-out: water solubility): 1920 µM
solubility at 15 min [9, 31]: 1920 µM
critical micelle concentration (CMC) [12]: 0.31 mmol/L
surface tension of the saturated aqueous solution [11]: 55.68 mN·m^−1

CN(C/C=C/C#CC(C)(C)C)Cc1cccc2ccccc12 [Terbinafine]
inhibition at 50 µg/mL (Valsa malicola (V. mali); Cytospora schulzeri, 50 mg/L, mean ± SD of three replicates, read-out: Inhibition Rate at 50 mg/L (%) V. m): 100%
EC50 (Valsa malicola (V. mali); V. mali, read-out: EC50 (mg/L)): 1.25 mg/L
EC50 (Valsa malicola (V. mali); V. mali, read-out: EC50 (μmol/L)): 4.28 µmol/L
inhibition at 50 µg/mL ([1]; Botrytis cinerea, 50 mg/L, mean ± SD of three replicates, read-out: Inhibition Rate at 50 mg/L (%) B. c): 100%
EC50 ([1]; Botrytis cinerea, B. cinerea, read-out: EC50 (mg/L)): 0.1 mg/L
EC50 ([1]; Botrytis cinerea, B. cinerea, read-out: EC50 (μmol/L)): 0.34 µmol/L
EC50 ([2]; Pyricularia oryzae): 0.28 µg/mL and 950 nM
inhibition at 50 µg/mL ([2]; Pyricularia oryzae, read-out: Inhibition Rate at 50 mg/L (%) P. o, 50 mg/L, mean ± SD of three replicates): 99.64 ± 0.36%
inhibition at 50 µg/mL ([3]; Diaporthe capsici, 50 mg/L, mean ± SD of three replicates, read-out: Inhibition Rate at 50 mg/L (%) P. c): 48.75 ± 0.45%
inhibition at 50 µg/mL ([4]; Alternaria solani, 50 mg/L, mean ± SD of three replicates, read-out: Inhibition Rate at 50 mg/L (%) A. s): 100%
EC50 ([4]; Alternaria solani, A. solani, read-out: EC50 (mg/L)): 0.07 mg/L
EC50 ([4]; Alternaria solani, A. solani, read-out: EC50 (μmol/L)): 0.25 µmol/L
EC50 ([5]; Rhizoctonia solani): 1.73 µg/mL and 5.94 µM
inhibition at 50 µg/mL ([5]; Rhizoctonia solani, 50 mg/L, read-out: Inhibition Rate at 50 mg/L (%) R. s): 84.21 ± 0.53%
EC50 [6, 13]: 0.07 µg/mL and 250 nM
inhibition at 50 µg/mL ([6]; Fusarium graminearum, read-out: Inhibition Rate at 50 mg/L (%) F. g): 100%
inhibition at 50 µg/mL ([7]; Pythium aphanidermatum, 50 mg/L, mean ± SD of three replicates, read-out: Inhibition Rate at 50 mg/L (%) P. a): 68.2 ± 1.87%
solubility [8, 15]: > 100 mg/mL
solubility [8, 16]: > 100 mg/mL
solubility [8, 17]: > 100 mg/mL
solubility [8, 18]: > 100 mg/mL
solubility [8, 19]: > 100 mg/mL
solubility [8, 20]: > 100 mg/mL
solubility [8, 21]: > 100 mg/mL
solubility [8, 22]: > 100 mg/mL
solubility [8, 23]: > 100 mg/mL
solubility ([8]; various polar solvents, organic solvent or mixture, read-out: solubility in various polar solvents): 100 mg/mL (≈ 343 mM)
solubility [8, 24]: < 33.3 mg/mL
solubility at 15 min ([9]; water, thermodynamic from solid, read-out: water solubility): 5.22 µM (≈ 1.52 µg/mL)
Diameter of infection (cm) 4 days [10]: 0.89 cm
Diameter of infection (cm) 7 days [10]: 1.07 cm
surface tension of the saturated aqueous solution [11]: 59.92 mN·m^−1
